The target in data set [1] is T1, P-gp (Homo sapiens, UniProt P08183). The data set can be described thus: Apparent Permeability Determination (Papp) on Caco-2 cells overexpressing P-gp. The settings on record: ratio Papp-BA/Papp-AB, 18-20 transported by P-gp, 2-18 modulator, 1-2 not transported. The format is in vitro ADME. Here is the method:
1) Apparent Permeability Determination (Papp)
This assay is carried out on colon adenocarcinoma cell line (Caco-2) overexpressing P-gp, a cell model usually employed for the permeability study. In this experiment Apparent Permeability (Papp) is determined both in basolateral/apical direction (Papp-BA) and in apical/basolateral direction (Papp-AB). The BA/AB ratio allow to discriminate if a ligand is transported by P-gp (BA/AB ratio between 18 and 20), or not (BA/AB ratio between 1 and 2). For BA/AB ratio between 2 and 18 compounds can be classified as modulators (see Polli, J. V et al., 2001, J. Pharmacol. Exp. Ther. 299, 620-628).
(Passage across Caco-2 layers is used to estimate intestinal permeability.)

Another data set deals with T2, MRP1 (Homo sapiens, UniProt P33527).
T2 construct: expressed in transfected cells; host or cells: MDCK
The data set can be described thus: Inhibition of the transport of Calcein-AM on MDCK cell lines overexpressing MDR proteins (MRP1). The format is cell-based. The settings on record: for EC50: Calcein-AM transport inhibition, MDCK cells overexpressing MRP1. The protocol: (§1) 3) Inhibition of the Transport of Calceina-AM and of Rhodamine-123 on MDCK Cell Lines Overexpressing MDR Proteins.
(§2) In this assay the inhibition of the transport of a BCRP fluorescent substrate, Rhodamina-123, or of a P-gp or MRP1 profluorescent substrate, Calcein-AM, is determined.
(§3) Calcein-AM, entering the cell membrane is […] by citosolic esterase to fluorescent calcein (that is not a P-gp substrate) leading to a fluorescent signal. Therefore, the inhibition of the efflux pump will be directly correlated to the fluorescent signal due to the cell accumulation of Calcein-AM (see Feng, B., et al., 2008; Drug Metab. Dispos. 36, 268-275).

Data set [2] concerns the target T1, P-gp. The data set can be described thus: Inhibition of the transport of Calcein-AM on MDCK cell lines overexpressing MDR proteins (P-gp). On the set-up: expressed in transfected cells; host or cells: MDCK. The format is cell-based. The settings on record: MDCK cells overexpressing P-gp. Here is the method: as §1, §2, §3

T1 sequence (P08183 whole entry): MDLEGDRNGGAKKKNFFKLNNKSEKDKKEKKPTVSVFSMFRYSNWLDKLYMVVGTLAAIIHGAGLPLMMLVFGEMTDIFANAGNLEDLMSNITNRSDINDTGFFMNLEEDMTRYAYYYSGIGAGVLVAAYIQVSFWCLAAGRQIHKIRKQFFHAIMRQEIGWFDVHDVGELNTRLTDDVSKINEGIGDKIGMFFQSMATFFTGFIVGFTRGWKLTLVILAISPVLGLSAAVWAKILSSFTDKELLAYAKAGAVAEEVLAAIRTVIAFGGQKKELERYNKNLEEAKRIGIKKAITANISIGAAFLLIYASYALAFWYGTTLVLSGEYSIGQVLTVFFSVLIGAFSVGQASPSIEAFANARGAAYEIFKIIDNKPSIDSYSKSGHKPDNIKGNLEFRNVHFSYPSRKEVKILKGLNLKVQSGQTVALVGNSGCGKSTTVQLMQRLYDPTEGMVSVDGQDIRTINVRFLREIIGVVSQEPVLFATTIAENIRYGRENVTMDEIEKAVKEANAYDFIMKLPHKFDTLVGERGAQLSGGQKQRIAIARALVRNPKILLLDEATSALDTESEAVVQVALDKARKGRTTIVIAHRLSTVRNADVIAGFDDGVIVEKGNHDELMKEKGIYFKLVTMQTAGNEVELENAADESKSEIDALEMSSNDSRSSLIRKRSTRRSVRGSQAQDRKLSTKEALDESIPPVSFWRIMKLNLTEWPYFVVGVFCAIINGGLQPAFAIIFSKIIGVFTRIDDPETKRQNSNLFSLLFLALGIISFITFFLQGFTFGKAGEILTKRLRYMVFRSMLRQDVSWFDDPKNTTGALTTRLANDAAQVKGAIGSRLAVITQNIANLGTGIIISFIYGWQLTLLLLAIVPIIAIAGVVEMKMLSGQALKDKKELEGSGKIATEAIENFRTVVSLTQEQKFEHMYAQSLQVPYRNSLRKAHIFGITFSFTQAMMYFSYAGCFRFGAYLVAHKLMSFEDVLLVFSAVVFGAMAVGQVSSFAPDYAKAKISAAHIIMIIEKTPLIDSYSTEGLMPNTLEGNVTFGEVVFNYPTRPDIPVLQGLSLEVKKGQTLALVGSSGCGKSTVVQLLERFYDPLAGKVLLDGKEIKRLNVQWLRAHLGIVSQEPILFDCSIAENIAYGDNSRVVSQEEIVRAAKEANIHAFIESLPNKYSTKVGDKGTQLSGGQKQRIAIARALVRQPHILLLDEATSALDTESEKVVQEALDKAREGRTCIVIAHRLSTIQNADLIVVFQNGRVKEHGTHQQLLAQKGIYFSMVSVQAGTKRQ
T2 sequence (P33527 whole entry): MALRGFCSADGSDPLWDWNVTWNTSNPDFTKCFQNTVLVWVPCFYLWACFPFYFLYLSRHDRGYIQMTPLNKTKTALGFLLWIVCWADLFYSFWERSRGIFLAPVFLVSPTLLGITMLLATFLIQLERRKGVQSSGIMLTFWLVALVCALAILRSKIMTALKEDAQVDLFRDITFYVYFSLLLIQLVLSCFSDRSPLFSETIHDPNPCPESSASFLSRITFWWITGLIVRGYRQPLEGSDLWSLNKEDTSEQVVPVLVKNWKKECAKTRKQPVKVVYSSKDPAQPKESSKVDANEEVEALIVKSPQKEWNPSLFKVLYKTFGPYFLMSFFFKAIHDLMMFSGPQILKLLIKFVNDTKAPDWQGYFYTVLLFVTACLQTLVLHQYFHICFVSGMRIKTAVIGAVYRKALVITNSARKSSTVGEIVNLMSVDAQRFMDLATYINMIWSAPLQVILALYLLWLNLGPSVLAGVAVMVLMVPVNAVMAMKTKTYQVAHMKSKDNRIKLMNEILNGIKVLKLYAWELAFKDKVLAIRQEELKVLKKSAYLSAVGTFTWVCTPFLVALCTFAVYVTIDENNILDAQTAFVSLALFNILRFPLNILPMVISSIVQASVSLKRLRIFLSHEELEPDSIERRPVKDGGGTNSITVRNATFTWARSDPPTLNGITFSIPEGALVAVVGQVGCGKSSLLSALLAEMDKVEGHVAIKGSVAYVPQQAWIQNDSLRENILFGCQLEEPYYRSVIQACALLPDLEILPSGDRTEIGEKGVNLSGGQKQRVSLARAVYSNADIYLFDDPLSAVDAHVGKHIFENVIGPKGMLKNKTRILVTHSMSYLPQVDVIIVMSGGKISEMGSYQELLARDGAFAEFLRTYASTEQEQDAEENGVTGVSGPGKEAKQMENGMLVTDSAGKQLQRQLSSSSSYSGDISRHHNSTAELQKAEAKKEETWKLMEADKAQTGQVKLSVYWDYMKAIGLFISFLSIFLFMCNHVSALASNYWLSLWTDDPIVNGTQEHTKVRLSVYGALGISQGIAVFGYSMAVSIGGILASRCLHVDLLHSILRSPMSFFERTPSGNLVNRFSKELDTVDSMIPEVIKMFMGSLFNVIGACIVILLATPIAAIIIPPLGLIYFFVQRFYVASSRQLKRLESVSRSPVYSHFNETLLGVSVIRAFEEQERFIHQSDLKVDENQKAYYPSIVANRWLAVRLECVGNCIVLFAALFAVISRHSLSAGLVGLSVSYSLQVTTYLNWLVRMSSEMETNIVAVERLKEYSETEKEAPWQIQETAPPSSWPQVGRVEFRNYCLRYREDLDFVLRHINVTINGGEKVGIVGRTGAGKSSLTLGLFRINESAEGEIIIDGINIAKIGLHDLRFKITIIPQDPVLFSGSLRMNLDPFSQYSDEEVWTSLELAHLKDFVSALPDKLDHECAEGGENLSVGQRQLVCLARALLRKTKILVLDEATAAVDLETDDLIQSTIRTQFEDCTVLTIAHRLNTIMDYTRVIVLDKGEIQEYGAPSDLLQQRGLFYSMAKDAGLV

Usually efflux ratio stands for a quotient of directional permeabilities that is used to spot active efflux. Usually EC50 stands for the midpoint of the concentration-response curve. Turning to `COc1cc2c(cc1OC)CN(Cc1coc(-c3ccc4cc(F)ccc4c3)n1)CC2` [R2 = H, R1 = F, X = O, 2-((2-(2-fluoronaphthalen-6-yl)oxazol-4-yl)methyl)-1,2,3,4-tetrahydro-6,7-dimethoxyisoquinoline], the efflux ratio at P-gp [1] is 0.8. Moreover, the half-maximal effective concentration (EC50) is 31.8 µM on MRP1 and 5.2 µM at P-gp [2].
The corresponding values for `COc1ccc2cc(-c3nc(CN4CCc5cc(OC)c(OC)cc5C4)cs3)ccc2c1` [R2 = H, R1 = OCH3, X = S, 1,2,3,4-tetrahydro-6,7-dimethoxy-2-((2-(2-methoxynaphthalen-6-yl)thiazol-4-yl)methyl)isoquinoline] are 6, greater than 100 µM and 1 µM.
Consider `COc1cc2c(cc1OC)CN(Cc1coc(-c3ccc4cc(O)ccc4c3)n1)CC2` [R2 = H, R1 = OH, X = O, 2-((2-(2-hydroxynaphthalen-6-yl)oxazol-4-yl)methyl)-1,2,3,4-tetrahydro-6,7-dimethoxyisoquinoline], for which, at P-gp [1], the efflux ratio is 1.6. At MRP1, the “activity towards MRP1 (in words)” value is “inactive” and the EC50 was greater than 100 µM. For the same molecule, the EC50 on P-gp [2] is 2.8 µM.
On to `COc1cc2c(cc1OC)CN(Cc1csc(-c3ccc4cc(Br)ccc4c3)n1)CC2` [R2 = H, R1 = Br, X = S, (2-((2-(2-Bromonaftalen-6-il)thiazol-4-il)metil)-1,2,3,4-tetraidro-6,7-dimetossiisochinolina], for which, on P-gp [1], the efflux ratio turned out to be 6. Moreover, the EC50 at MRP1 was greater than 100 µM; at P-gp [2], 3.7 µM.
`COc1cc2c(cc1OC)CN(Cc1coc(-c3ccc4ccccc4c3)n1)CC2` [R2 = H, R1 = H, X = O, 1,2,3,4-tetrahydro-6,7-dimethoxy-2-((2-(naphthalen-6-yl)oxazol-4-yl)methyl)isoquinoline]: the efflux ratio at P-gp [1] came out at 0.4. The results for the EC50 on MRP1 and on P-gp [2] were 33.2 µM and 2.7 µM, respectively.
